Test results from patent publication US20090123907A1 (priority 2004, published 2009).

Assays:
red blood cells = assay: Red blood cell integrity during storage at 4° C.; assay type: cell-based; design: MCV Day 20 / MCV Day 33: unit not given here; conditions: for RBC Day 1: whole blood; for MCV Day 20 / MCV Day 33: whole blood stored at 4° C.
Procedure: In this experiment whole blood (an aliquot of which clotted within 10 minutes without anticoagulant) was modified by adding a number of different anticoagulant compositions. Sodium citrate was used as an anticoagulant at 0.65%, 0.75% and 0.9% by weight. These are all higher citrate levels than the usual 0.4% by weight. Amino acid citrates (lysine or arginine) were used at 0.65%, 0.75% and 0.9% by weight based on the weight of the citric acid. The amino acid counterion was used in sufficient quantity to adjust the pH as explained above.
To judge red cell condition the blood was counted and various other measurements were taken initially and after 20 and 33 days of storage at 4° C. Apparent initial/differences in RBC counts are due to dilution caused by adding extra anticoagulant. Mean cell volume (MCV) is a red cell index that is a useful measure of red cell health. […] It is believed that a citrate level of at least about 1.0% by weight (i.e., more than two times the usual amount) is necessary to ensure against all activation of plasma proteins. […] On the other hand, amino acid citrates, which are very effective anticoagulants, are also effective at preventing red cell damage.

plasma proteins [1] = assay: Protein resistance to room temperature aging; conditions: Na citrate 0.4%, lysine citrate 2%
Excerpt: […]. In many cases heat treatments have been used to reduce or eliminated infectious agents from blood products. A problem with such an approach has been heat induced changes in the antigenicity of certain blood components. […]. A continuation of this experiment was set up to check also long term room temperature stability. It is generally believed that resistance to heat is an indicator of room temperature stability. That is the justification for estimating long term stability of products by using “accelerated” stability tests based on storage at an elevated temperature. In the presented experiment it is important to note that different plasma sample were used for the two different anticoagulants because a single sample was not large enough to provide sufficient volume for all of the tests over the life of the extended experiment.
It was anticipated that protection against damage due to elevated temperature would also provide greater stability at room temperature. It will be appreciated that the need to rapidly freeze plasma to ensure stability and the need to freeze or refrigerate plasma for transport greatly complicates the use of plasma under situations of war or emergency or in developing countries where refrigeration may not be readily available. […] […]. […] […]. Although great effort is taken to ensure sterility of the plasma, any blood product procured by means of venipuncture may become contaminated by skin bacteria. […] […]. Those proteins that do lose activity decrease only slightly as compared to much more dramatic decreases in sodium citrate storage.

plasma proteins [2] = assay: Protein resistance to vortexing; conditions: for Alk. Phos / LDH / SGOT / SGPT / fIX / fV / fVIII / fibrinogen: plasma, Na citrate 0.4%, lysine citrate 2.0%
Procedure: As the basic anticoagulant experiments were carried out, additional advantages to the new anticoagulation system became apparent. The inventor has long believed that the effects of citrate on proteins, and in particular plasma proteins, goes beyond mere chelation of calcium. As mentioned above, citrate complexes with or otherwise potentiates the precipitation of plasma proteins. […] Soluble protein can be denatured by vigorous mixing and the resulting exposure to the air-water interfaces present in foam. […]. Two ten ml tubes of each plasma were prepared and held at room temperature for thirty minutes. A “pretreatment” sample (Pre) was removed from each tube and set aside. Then the tubes were subjected to vigorous mixing using a vortex (rotary) mixer for 30 min.
[…]. […] […].

[3] = after vortexing, sodium citrate 0.4%, lysine citrate 2%

With `NCCCC[C@H](N)C(=O)O.O=C(O)CC(O)(CC(=O)O)C(=O)O` [Lysine Citrate, lysine citrate] the “RBC Day 1” value (red blood cells; anticoagulant 0.65 wgt %) was 5.37 10^6/μl, the “MCV Day 20” value (red blood cells; anticoagulant 0.65 wgt %) was 93.0 and the “MCV Day 33” value (red blood cells; anticoagulant 0.65 wgt %) was 93.8. For the same compound, the “RBC Day 1” value (red blood cells; anticoagulant 0.75 wgt %) was 6.78 10^6/μl, the “MCV Day 20” value (red blood cells; anticoagulant 0.75 wgt %) was 92.7 and the “MCV Day 33” value (red blood cells; anticoagulant 0.75 wgt %) was 92.7. For the same compound, the “RBC Day 1” value (red blood cells; anticoagulant 0.90 wgt %) was 5.82 10^6/μl, the “MCV Day 20” value (red blood cells; anticoagulant 0.90 wgt %) was 92.2 and the “MCV Day 33” value (red blood cells; anticoagulant 0.90 wgt %) was 92.9. For the same compound, the “Alk. Phos” value (plasma proteins [1]; 0 days at room temperature) was 23 IU/.L, the LDH (plasma proteins [1]; 0 days at room temperature) was 97 IU/L and the SGOT (plasma proteins [1]; 0 days at room temperature) was 10 IU/L. For the same compound, the SGPT (plasma proteins [1]; 0 days at room temperature) was 20 IU/L, the fIX (plasma proteins [1]; 0 days at room temperature) was 99% and the fV (plasma proteins [1]; 0 days at room temperature) was 97%. For the same compound, the fVIII (plasma proteins [1]; 0 days at room temperature) was 102%, the fibrinogen (plasma proteins [1]; 0 days at room temperature) was 198 mg/dL and the “Alk. Phos” value (plasma proteins [1]; 7 days at room temperature) was 23 IU/.L. The LDH (plasma proteins [1]; 7 days at room temperature) was 97 IU/L, the SGOT (plasma proteins [1]; 7 days at room temperature) was 10 IU/L and the SGPT (plasma proteins [1]; 7 days at room temperature) was 20 IU/L. For the same compound, the fIX (plasma proteins [1]; 7 days at room temperature) was 100%, the fV (plasma proteins [1]; 7 days at room temperature) was 95% and the fVIII (plasma proteins [1]; 7 days at room temperature) was 100%. The fibrinogen (plasma proteins [1]; 7 days at room temperature) was 198 mg/dL, the “Alk. Phos” value (plasma proteins [1]; 14 days at room temperature) was 22 IU/.L and the LDH (plasma proteins [1]; 14 days at room temperature) was 98 IU/L. The SGOT (plasma proteins [1]; 14 days at room temperature) was 11 IU/L, the SGPT (plasma proteins [1]; 14 days at room temperature) was 20 IU/L and the fIX (plasma proteins [1]; 14 days at room temperature) was 95%. It also gave a fV (plasma proteins [1]; 14 days at room temperature) of 92%, a fVIII (plasma proteins [1]; 14 days at room temperature) of 97% and a fibrinogen (plasma proteins [1]; 14 days at room temperature) of 196 mg/dL. The “Alk. Phos” value (plasma proteins [1]; 21 days at room temperature) was 23 IU/.L, the LDH (plasma proteins [1]; 21 days at room temperature) was 98 IU/L and the SGOT (plasma proteins [1]; 21 days at room temperature) was 10 IU/L. The SGPT (plasma proteins [1]; 21 days at room temperature) was 18 IU/L, the fIX (plasma proteins [1]; 21 days at room temperature) was 89% and the fV (plasma proteins [1]; 21 days at room temperature) was 88%. The fVIII (plasma proteins [1]; 21 days at room temperature) was 96%, the fibrinogen (plasma proteins [1]; 21 days at room temperature) was 196 mg/dL and the “Alk. Phos” value (plasma proteins [2]; Post 30 min vortexing) was 22 IU/.L. For the same compound, the LDH (plasma proteins [2]; Post 30 min vortexing) was 80 IU/L, the SGOT (plasma proteins [2]; Post 30 min vortexing) was 11 IU/L and the SGPT (plasma proteins [2]; Post 30 min vortexing) was 24 IU/L. The fIX (plasma proteins [2]; Post 30 min vortexing) was 76%, the fV (plasma proteins [2]; Post 30 min vortexing) was 55% and the fVIII (plasma proteins [2]; Post 30 min vortexing) was 57%. The fibrinogen (plasma proteins [2]; Post 30 min vortexing) was 198 mg/dL, the “Alk. Phos” value (plasma proteins [2]; Pre vortexing) was 25 IU/.L and the LDH (plasma proteins [2]; Pre vortexing) was 99 IU/L. For the same compound, the SGOT (plasma proteins [2]; Pre vortexing) was 12 IU/L, the SGPT (plasma proteins [2]; Pre vortexing) was 26 IU/L and the fIX (plasma proteins [2]; Pre vortexing) was 98%. The fV (plasma proteins [2]; Pre vortexing) was 95%, the fVIII (plasma proteins [2]; Pre vortexing) was 97% and the fibrinogen (plasma proteins [2]; Pre vortexing) was 247 mg/dL. For the same compound, the “Alkaline phosphatase, % of its initial value” (plasma proteins [2]; [3]) was 88%, the “LDH, % of initial value” (plasma proteins [2]; [3]) was 80% and the “SGOT, % of initial value” (plasma proteins [2]; [3]) was 91.6%. For the same compound, the “SGPT, % of initial value” (plasma proteins [2]; [3]) was 92%, the “factor IX, % of initial value” (plasma proteins [2]; [3]) was 77.6% and the “factor V, % of initial value” (plasma proteins [2]; [3]) was 58%. For the same compound, the “factor VIII, % of initial value” (plasma proteins [2]; [3]) was 59% and the “fibrinogen, % of initial value” (plasma proteins [2]; [3]) was 80%.
